For data set [1] the following is noted: for irradiation time to complete photolysis: 405 nm LED, 80 mM in CD3CN, diphenyl disulfide (3 eq.). The text has this: The photolysis has been followed by ^31P NMR. […] The results are further illustrated by Fig. 2
The conditions of data set [2]: for ε405: λ = 405 nm. As to the method:
To compare photobleaching, 0.25 mM solutions of ^PhBAPO-ONBu4 and ^MesBAPO-ONBu4 were prepared in THF. UV-Vis spectra were recorded in 2 mm quartz cuvettes prior and after 15 min of irradiation with 265 nm (Lumos 43 LED reactor, Atlas Photonics). Spectra have been smoothed (adjacent averaging, points of window: 5).

The conditions of data set [3]: 25°C. As to the method: To determine the solubility, small samples of the respective substance were exactly weighed to Eppendorf tubes. Upon shanking at an Eppendorf thermomixer (25 C @ 1400 rpm), water is added until the whole samples was homogenously dissolved.
For data set [4] the following is noted: for integral rel. to TPP / integral rel. to t = 0: protected from light. The method, then:
To determine the stability of ^PhBAPO-ONBu4 against hydrolysis, 10 mg were dissolved in 0.6 mL of D2O in a NMR tube protected from light. […] Table 1: Integrals of 31P NMR signals of PhBAPO-ONBu4 relative to TPP as external standard for integration over time.

Here are results for two compounds from EP3539969A1, “NOVEL PHOTO-INITIATORS AND THEIR APPLICATION” (ETH Zurich, priority 2018, dated 2019).

Counter-ions that a name gives are not always drawn. Like-named read-outs stand apart in the source and are kept apart here.

For `Cc1cc(C)c(C(=O)P(=O)(O)C(=O)c2c(C)cc(C)cc2C)c(C)c1` [^MesBAPO-ONBu4, bis(mesitoyl)phosphinic acid tetrabutylammonium salt, reference compound], the “irradiation time to complete photolysis” value in data set [1] is reported as “over 12 min”. Also, in data set [2] (THF), the “λmax (longest wave absorption)” value is 373 nm. Moreover, the ε stood at 5935±72 Lmol^-1cm^-1 in data set [2] (λ = 244 nm), 3368±88 Lmol^-1cm^-1 in data set [2] (λ = 265 nm (LED wavelength)), 211±3 Lmol^-1cm^-1 in data set [2] (λ = 359 nm) and 216±4 Lmol^-1cm^-1 in data set [2] (λ = 365 nm (LED wavelength)). For the same compound, the ε405 in data set [2] was determined as 64 Lmol^-1cm^-1. The same compound gave a solubility in water in data set [3] of 3.5 mg/mL.

Regarding `O=C(c1ccccc1)P(=O)(O)C(=O)c1ccccc1` [^PhBAPO-ONBu4, bis(benzoyl)phosphinic acid tetrabutylammonium salt], the “irradiation time to complete photolysis” value in data set [1] is reported as at most 6 min. Also, the “photoactivity relative to ^MesBAPO-ONBu4” value in data set [1] (405 nm irradiation) is listed as “at least twice as photoactive as ^MesBAPO-ONBu4”. Also, the photobleaching entry in data set [2] (0.25 mM in THF, 15 min irradiation with 265 nm) is listed as “only colourless photoproducts are formed”. Moreover, the “red shift of λmax compared to ^MesBAPO-ONBu4” value in data set [2] (THF) was “about 20 nm”. Besides, in data set [2] (THF), the “λmax (longest wave absorption)” value is reported as 394 nm. The ε was 16957±1372 Lmol^-1cm^-1 in data set [2] (λ = 235 nm), 3424±88 Lmol^-1cm^-1 in data set [2] (λ = 265 nm (LED wavelength)), 106±2 Lmol^-1cm^-1 in data set [2] (λ = 365 nm (LED wavelength)) and 171±4 Lmol^-1cm^-1 in data set [2] (λ = 394 nm). Besides, the ε405 in data set [2] stood at 154 Lmol^-1cm^-1. Also, the solubility in water in data set [3] came to 17.2 mg/mL. This compound showed a half-life in data set [4] of 51.4 days. The half time in data set [4] (hydrolysis in D2O) was determined as 51 days. In data set [4] (hydrolysis in D2O, over 84 days), the “t1 (exponential fitting of the decay, y = e^-x/t1)” value came to 74.2 ± 1.8 days. Further, the “integral rel. to TPP” value in data set [4] (t = 0 d, 10 mg in 0.6 mL D2O) worked out at 4.24; in data set [4] (t = 4 d, D2O), 4.02; in data set [4] (t = 5 d, D2O) it was 4.02; in data set [4] (t = 14 d, D2O), 3.46; in data set [4] (t = 29 d, D2O), 2.98; in data set [4] (t = 56 d, D2O), 1.98. The “integral rel. to TPP” value in data set [4] (t = 84 d, D2O) is given as 1.31. The “integral rel. to t = 0” value in data set [4] (t = 0 d, D2O) stood at 1; in data set [4] (t = 4 d, D2O), 0.9481; in data set [4] (t = 5 d, D2O) it was 0.9481; in data set [4] (t = 14 d, D2O) it was 0.816; in data set [4] (t = 29 d, D2O), 0.7028; in data set [4] (t = 56 d, D2O), 0.467. Further, the “integral rel. to t = 0” value in data set [4] (t = 84 d, D2O) is reported as 0.309.
